Here are results for 7 molecules from patent US10800791B2, “Triazole ACC inhibitors and uses thereof” (Gilead Apollo, LLC, priority 2015, dated 2020).

SMILES strings stand for the structures. In brackets after ≈: the same amount, converted by molar mass. Like-named read-outs stand apart in the source and are kept apart here.

Test [1] has as its system C. albicans. Put plainly: Antifungal Activity Assay (broth microtiter MIC), C. albicans. In kind it is cell-based, Candida albicans. The settings on record: 3 replicates, MIC recorded at 48 h; for MIC: Candida albicans, ATCC90028, 48 h, ATCC 90028, read-out: MIC, C. albicans ATCC 90028. The protocol:
(§1) Compounds of the present invention were evaluated in an Antifungal Activity Assay. An exemplary procedure for the assay, which measures the susceptibility of various Candida species to antifungal compounds, follows. Compounds to be tested (including fluconazole and amphotericin B) were dissolved in DMSO to obtain a solution having a concentration of 1 mg/mL. These stock solutions were sterile filtered using a 0.22 um nylon syringe filter, then diluted in sterile water to achieve a final concentration of 128 μg/mL.
(§2) All species were grown from frozen stock by directly plating on to freshly prepared Sabouraud Dextrose agar (BD, Difco) and incubated overnight in ambient air at 35° C. for 24 h. A direct suspension was prepared in RPMI 1640+MOPS (Lonza, Biowhittaker) by taking individual colonies from the overnight cultures using sterile swabs soaked in sterile saline. The concentration of the suspension was determined using pre-determined standard curves. These suspensions were then diluted down to 5×10^3 CFU/mL to achieve a final concentration of 2.5×10^3 CFU/mL once added to the microtiter plate as per CLSI guidelines (M27-A3, Vol. 28 No. 14).
(§3) Broth microtiter MIC challenge plates were prepared following CLSI guidelines (M27-A3, Vol. 28 No. 14). The original CLSI guidelines focused on reading Candida MICs after 48 h of incubation. As reading after only 24 h offers a clear advantage of patient care, QC limits are being established for all drugs at 24 h. That being said there are no known interpretive breakpoints for amphotericin B at 24 h and the current fluconazole interpretive breakpoints are based on a 48 h reading. The MICs for the test compounds were recorded at 48 h. All MIC determinations were achieved by visually comparing the growth found in the antibiotic challenged wells to that of the growth control.

Test [2] concerns C. parapsilosis. Put plainly: Antifungal Activity Assay (broth microtiter MIC), C. parapsilosis. Type of test: cell-based, Candida parapsilosis. The settings on record: 3 replicates, MIC recorded at 48 h; for MIC: Lodderomyces parapsilosis, ATCC22019, 48 h, ATCC 22019, read-out: MIC, C. parapsilosis ATCC 22019. The protocol:
as §1, §2, §3

Test [3] deals with human (hACC2) (Homo sapiens, UniProt O00763). The test can be described thus: In vitro ACC inhibition assay (ADP-Glo), hACC2. Type of test: biochemical. Conditions: 5 nM ACC2, 20 μM ATP, 20 μM acetyl-CoA. As for the experimental part:
The detailed procedure is as follows. […] 10 μL ADP glo reagent was added. […] 20 μL kinase detection reagent was added.
In general terms: In ADP-Glo the light output rises with the ADP produced.

In test [4] the test system is C. krusei. The test can be described thus: Antifungal Activity Assay (broth microtiter MIC), C. krusei. Type of test: cell-based, Candida krusei. The settings on record: 3 replicates, MIC recorded at 48 h; for MIC: Pichia kudriavzevii, ATCC6258, 48 h, ATCC 6258, read-out: MIC, C. krusei ATCC 6258. The protocol: as §1, §2, §3
For test [5], the target named is fungal (fACC2) (UniProt Q00955). Conditions: read-out: fACC2 (in vitro ACC2 Inhibition Assay, IC50), ADP-Glo, 5 nM ACC2, 20 μM ATP, 20 μM acetyl-CoA.
Sequence of fungal (fACC2) (Q00955 whole entry): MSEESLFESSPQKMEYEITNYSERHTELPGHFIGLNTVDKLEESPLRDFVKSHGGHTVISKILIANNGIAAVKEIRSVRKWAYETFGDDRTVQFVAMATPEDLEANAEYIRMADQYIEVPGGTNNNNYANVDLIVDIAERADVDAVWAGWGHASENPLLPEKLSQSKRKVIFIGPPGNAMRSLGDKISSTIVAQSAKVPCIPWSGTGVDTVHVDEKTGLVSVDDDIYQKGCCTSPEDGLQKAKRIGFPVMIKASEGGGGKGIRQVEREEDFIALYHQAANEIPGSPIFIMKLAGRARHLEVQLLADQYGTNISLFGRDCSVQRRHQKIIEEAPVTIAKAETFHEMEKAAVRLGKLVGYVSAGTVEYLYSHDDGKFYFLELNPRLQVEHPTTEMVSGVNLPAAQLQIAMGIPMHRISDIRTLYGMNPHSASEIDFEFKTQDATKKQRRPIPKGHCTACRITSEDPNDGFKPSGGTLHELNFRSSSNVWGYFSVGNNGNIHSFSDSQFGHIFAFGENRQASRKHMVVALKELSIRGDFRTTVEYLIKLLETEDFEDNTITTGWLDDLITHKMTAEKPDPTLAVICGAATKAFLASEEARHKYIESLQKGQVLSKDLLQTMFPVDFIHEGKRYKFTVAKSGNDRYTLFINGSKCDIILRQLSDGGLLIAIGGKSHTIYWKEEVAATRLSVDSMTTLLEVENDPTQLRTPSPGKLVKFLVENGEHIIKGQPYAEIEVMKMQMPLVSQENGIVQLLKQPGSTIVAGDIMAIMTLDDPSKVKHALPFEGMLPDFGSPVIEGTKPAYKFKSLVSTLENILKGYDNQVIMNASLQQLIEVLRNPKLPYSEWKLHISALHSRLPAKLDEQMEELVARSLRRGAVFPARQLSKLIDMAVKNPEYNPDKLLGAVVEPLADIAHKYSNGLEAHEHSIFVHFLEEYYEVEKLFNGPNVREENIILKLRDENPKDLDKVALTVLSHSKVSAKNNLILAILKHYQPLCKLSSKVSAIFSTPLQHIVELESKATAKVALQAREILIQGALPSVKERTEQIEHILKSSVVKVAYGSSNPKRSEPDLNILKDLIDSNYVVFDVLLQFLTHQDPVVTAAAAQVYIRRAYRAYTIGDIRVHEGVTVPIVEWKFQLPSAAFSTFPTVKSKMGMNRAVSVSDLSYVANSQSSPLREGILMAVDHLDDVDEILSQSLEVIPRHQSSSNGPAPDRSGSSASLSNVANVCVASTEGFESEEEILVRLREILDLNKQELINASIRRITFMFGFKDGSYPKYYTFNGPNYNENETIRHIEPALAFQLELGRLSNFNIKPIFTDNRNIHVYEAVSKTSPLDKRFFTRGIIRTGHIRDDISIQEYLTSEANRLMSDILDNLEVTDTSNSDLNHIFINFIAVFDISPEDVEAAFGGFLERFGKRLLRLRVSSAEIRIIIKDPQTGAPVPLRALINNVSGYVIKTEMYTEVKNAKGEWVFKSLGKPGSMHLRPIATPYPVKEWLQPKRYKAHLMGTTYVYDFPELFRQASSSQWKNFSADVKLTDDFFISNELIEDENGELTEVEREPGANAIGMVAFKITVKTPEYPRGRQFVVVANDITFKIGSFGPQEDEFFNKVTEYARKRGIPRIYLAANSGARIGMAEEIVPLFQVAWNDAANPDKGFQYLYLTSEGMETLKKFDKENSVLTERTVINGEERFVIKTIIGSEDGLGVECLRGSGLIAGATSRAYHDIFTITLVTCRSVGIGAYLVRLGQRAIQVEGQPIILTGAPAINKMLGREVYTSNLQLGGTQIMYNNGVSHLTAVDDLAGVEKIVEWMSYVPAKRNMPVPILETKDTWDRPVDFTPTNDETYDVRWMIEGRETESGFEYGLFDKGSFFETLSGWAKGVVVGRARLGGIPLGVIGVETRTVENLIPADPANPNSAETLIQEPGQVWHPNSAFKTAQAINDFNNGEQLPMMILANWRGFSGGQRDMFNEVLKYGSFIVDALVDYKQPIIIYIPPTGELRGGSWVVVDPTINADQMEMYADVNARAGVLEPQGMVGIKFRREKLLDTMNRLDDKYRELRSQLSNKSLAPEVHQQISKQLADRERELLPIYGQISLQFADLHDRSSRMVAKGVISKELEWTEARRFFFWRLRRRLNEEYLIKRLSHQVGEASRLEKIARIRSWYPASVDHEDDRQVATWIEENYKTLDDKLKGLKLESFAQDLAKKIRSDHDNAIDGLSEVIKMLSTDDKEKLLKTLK

Sequence of human (hACC2) (O00763 whole entry): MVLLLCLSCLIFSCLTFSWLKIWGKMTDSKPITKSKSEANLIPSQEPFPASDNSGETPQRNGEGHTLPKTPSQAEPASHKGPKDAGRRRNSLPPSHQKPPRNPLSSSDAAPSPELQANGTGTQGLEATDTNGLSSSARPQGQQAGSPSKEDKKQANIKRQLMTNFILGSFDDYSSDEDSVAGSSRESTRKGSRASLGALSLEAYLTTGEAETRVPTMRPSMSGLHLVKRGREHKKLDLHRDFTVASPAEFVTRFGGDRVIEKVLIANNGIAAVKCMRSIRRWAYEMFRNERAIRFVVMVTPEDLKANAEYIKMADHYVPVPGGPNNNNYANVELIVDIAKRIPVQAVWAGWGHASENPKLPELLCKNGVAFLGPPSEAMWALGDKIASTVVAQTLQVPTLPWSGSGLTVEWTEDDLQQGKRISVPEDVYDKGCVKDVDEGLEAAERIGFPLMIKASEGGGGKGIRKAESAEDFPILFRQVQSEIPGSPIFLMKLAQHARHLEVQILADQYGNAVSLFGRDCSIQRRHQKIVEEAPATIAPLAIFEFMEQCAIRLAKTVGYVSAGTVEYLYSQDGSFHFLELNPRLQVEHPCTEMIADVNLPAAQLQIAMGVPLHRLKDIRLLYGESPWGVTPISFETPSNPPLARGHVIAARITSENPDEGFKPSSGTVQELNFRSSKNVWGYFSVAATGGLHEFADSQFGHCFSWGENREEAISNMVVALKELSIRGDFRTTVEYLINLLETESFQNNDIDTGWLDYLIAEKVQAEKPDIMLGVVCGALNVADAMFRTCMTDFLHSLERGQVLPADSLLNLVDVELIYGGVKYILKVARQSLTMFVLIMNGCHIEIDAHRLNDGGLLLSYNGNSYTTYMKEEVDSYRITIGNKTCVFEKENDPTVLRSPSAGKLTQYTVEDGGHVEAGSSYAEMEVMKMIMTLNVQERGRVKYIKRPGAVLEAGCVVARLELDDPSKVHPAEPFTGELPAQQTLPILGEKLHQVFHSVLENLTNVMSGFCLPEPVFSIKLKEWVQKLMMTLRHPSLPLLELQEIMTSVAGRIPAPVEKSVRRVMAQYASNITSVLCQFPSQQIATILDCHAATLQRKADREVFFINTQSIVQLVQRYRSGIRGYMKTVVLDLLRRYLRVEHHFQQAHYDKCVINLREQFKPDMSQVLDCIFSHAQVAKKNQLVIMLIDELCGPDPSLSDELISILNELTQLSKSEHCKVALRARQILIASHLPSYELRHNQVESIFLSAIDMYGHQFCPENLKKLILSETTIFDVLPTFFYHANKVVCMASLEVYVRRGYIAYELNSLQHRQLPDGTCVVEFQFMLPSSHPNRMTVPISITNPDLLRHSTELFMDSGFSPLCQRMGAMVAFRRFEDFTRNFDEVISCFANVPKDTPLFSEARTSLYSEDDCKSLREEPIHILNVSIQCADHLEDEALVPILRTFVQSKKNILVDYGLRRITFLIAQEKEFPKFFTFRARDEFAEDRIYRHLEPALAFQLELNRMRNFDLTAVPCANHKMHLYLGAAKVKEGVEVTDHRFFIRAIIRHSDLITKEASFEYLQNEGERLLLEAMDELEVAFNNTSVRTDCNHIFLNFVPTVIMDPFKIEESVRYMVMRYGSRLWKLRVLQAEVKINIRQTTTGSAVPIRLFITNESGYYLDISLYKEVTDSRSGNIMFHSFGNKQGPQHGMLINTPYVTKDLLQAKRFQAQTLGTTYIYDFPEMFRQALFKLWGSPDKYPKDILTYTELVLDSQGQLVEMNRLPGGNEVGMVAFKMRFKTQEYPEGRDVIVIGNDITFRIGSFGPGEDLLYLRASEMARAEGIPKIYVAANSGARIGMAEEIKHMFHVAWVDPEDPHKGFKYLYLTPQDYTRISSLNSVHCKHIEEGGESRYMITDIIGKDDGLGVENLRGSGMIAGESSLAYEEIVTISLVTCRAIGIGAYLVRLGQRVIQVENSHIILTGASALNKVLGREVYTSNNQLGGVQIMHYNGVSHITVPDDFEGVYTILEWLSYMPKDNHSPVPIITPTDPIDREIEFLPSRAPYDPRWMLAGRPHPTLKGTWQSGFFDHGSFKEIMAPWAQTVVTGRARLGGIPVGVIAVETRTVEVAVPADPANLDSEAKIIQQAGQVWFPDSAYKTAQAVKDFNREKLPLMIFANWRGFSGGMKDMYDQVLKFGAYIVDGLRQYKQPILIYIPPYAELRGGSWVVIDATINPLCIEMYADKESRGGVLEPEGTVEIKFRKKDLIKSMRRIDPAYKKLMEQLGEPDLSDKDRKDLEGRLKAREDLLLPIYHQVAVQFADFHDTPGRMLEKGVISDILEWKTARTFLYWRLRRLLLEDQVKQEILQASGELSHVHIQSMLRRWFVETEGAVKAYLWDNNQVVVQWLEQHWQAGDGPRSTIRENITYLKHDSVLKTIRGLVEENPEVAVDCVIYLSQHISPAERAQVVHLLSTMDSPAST

A word on the MIC: it is the least concentration at which growth counts as inhibited. As a reminder, the IC50 is the concentration that inhibits the measured activity by half. In the case of `COc1ccc(F)cc1[C@H](Cn1c(=O)n(C(C)(C)C(=O)NC2CCCCC2)c(=O)c2c(C)c(-n3nccn3)sc21)OCC(C)=O` [Compound I-99], the minimum inhibitory concentration (MIC) was in the range of 0.25 to 1 µg/mL (≈ 0.39 to 1.56 µM) in test [1] (Table 3a); 1.01 to 2 µg/mL (≈ 1.58 to 3.12 µM) in test [1] (Table 3b (additional results)); 0.25 to 1 µg/mL (≈ 0.39 to 1.56 µM) in test [2] (Table 3a); 0.25 to 1 µg/mL (≈ 0.39 to 1.56 µM) in test [2] (Table 3b (additional results)); 0.06 to 0.24 µg/mL (≈ 0.0936 to 0.375 µM) in test [4] (Table 3a); 0.25 to 1 µg/mL (≈ 0.39 to 1.56 µM) in test [4] (Table 3b (additional results)). In addition, the IC50 in test [3] (Table 2a) lay in the range of 1 to 5 nM; in test [3] (Table 2b, additional results) it was 1 to 5 nM; in test [5] (Table 2a), 1 to 5 nM; in test [5] (Table 2b, additional results) it was 1 to 5 nM.
As for `COCCO[C@@H](Cn1c(=O)n(C(C)(C)C(=O)NC2CCC2)c(=O)c2c(C)c(-n3nccn3)sc21)c1cc(F)ccc1OC` [Compound I-100], the MIC was 2.01 to 4 µg/mL (≈ 3.27 to 6.51 µM) in test [1] (Table 3b (additional results)) and 0.25 to 1 µg/mL (≈ 0.407 to 1.63 µM) in test [2] (Table 3b (additional results)). Moreover, in test [1] (Table 3a), the “MIC, C. albicans ATCC 90028” value is “A (MIC of 0.25-1.0 μg/mL)”. For the same molecule, in test [2] (Table 3a), the “MIC, C. parapsilosis ATCC 22019” value is “A (MIC of 0.25-1.0 μg/mL)”. For the same molecule, the 50% inhibitory concentration (IC50) in test [3] (Table 2a) fell in the range of 1 to 5 nM; in test [3] (Table 2b, additional results), 1 to 5 nM; in test [5] (Table 2a), 1 to 5 nM; in test [5] (Table 2b, additional results), 1 to 5 nM. The “MIC, C. krusei ATCC 6258” value in test [4] (Table 3a) was “AA (MIC of 0.06-0.24 μg/mL)”; in test [4] (Table 3b (additional results)), “A (MIC of 0.25-1.0 μg/mL)”.
In the case of `COc1ccccc1[C@H](Cn1c(=O)n(C(C)(C)C(=O)N2CC=CC2)c(=O)c2c(C)c(-n3nccn3)sc21)OC1CCOCC1` [Compound I-101], the MIC in test [1] (Table 3a) lay within 0.25 to 1 µg/mL (≈ 0.403 to 1.61 µM); in test [1] (Table 3b (additional results)), 1.01 to 2 µg/mL (≈ 1.63 to 3.22 µM); in test [2] (Table 3a) it was 0.25 to 1 µg/mL (≈ 0.403 to 1.61 µM); in test [2] (Table 3b (additional results)), 1.01 to 2 µg/mL (≈ 1.63 to 3.22 µM); in test [4] (Table 3a), 0.25 to 1 µg/mL (≈ 0.403 to 1.61 µM); in test [4] (Table 3b (additional results)), 1.01 to 2 µg/mL (≈ 1.63 to 3.22 µM). Moreover, the IC50 fell in the range of 5 to 10 nM in test [3] (Table 2a); 5 to 10 nM in test [3] (Table 2b, additional results); 1 to 5 nM in test [5] (Table 2a); 1 to 5 nM in test [5] (Table 2b, additional results).
Take `COCCO[C@@H](Cn1c(=O)n(C(C)(C)C(=O)NC2CCC2)c(=O)c2c(C)c(-n3nccn3)sc21)c1cc(F)ccc1OC` [Compound I-102]: the entries for the “MIC, C. albicans ATCC 90028” value in test [1] (Table 3a) and in test [1] (Table 3b (additional results)) were “A (MIC of 0.25-1.0 μg/mL)” and “C (MIC of 2.01-4.0 μg/mL)”, respectively. Moreover, the “MIC, C. parapsilosis ATCC 22019” value in test [2] (Table 3a) and in test [2] (Table 3b (additional results)) was “A (MIC of 0.25-1.0 μg/mL)” throughout. The IC50 in test [3] (Table 2a) was 1 to 5 nM; in test [3] (Table 2b, additional results), 1 to 5 nM; in test [5] (Table 2a) it was 1 to 5 nM; in test [5] (Table 2b, additional results) it was 1 to 5 nM. Also, the “MIC, C. krusei ATCC 6258” value in test [4] (Table 3a) and in test [4] (Table 3b (additional results)) was “A (MIC of 0.25-1.0 μg/mL)” throughout.
Regarding `COCCO[C@@H](Cn1c(=O)n(C(C)(C)C(=O)NC2CCCCC2)c(=O)c2c(C)c(-n3nccn3)sc21)c1cc(F)ccc1OC` [Compound I-103], the MIC lay in the range of 1.1 to 2 µg/mL (≈ 1.71 to 3.11 µM) in test [1] (Table 3a); 1.01 to 2 µg/mL (≈ 1.57 to 3.11 µM) in test [1] (Table 3b (additional results)); 0.25 to 1 µg/mL (≈ 0.389 to 1.56 µM) in test [2] (Table 3a); 0.25 to 1 µg/mL (≈ 0.389 to 1.56 µM) in test [2] (Table 3b (additional results)); 0.25 to 1 µg/mL (≈ 0.389 to 1.56 µM) in test [4] (Table 3a); 0.25 to 1 µg/mL (≈ 0.389 to 1.56 µM) in test [4] (Table 3b (additional results)). Moreover, the half-inhibitory concentration (IC50) lay within 10 to 40 nM in test [3] (Table 2a); 10 to 40 nM in test [3] (Table 2b, additional results); 1 to 5 nM in test [5] (Table 2a); 1 to 5 nM in test [5] (Table 2b, additional results).
`COc1ccc(F)cc1[C@H](Cn1c(=O)n(C(C)(C)C(=O)NC(C)C)c(=O)c2c(C)c(-n3nccn3)sc21)OCCC(C)=O` [Compound I-104]: the MIC in test [1] (Table 3a) lay within 0.25 to 1 µg/mL (≈ 0.407 to 1.63 µM); in test [1] (Table 3b (additional results)), 0.25 to 1 µg/mL (≈ 0.407 to 1.63 µM); in test [2] (Table 3a) it was 0.25 to 1 µg/mL (≈ 0.407 to 1.63 µM); in test [2] (Table 3b (additional results)), 0.25 to 1 µg/mL (≈ 0.407 to 1.63 µM); in test [4] (Table 3a), 0.06 to 0.24 µg/mL (≈ 0.0976 to 0.39 µM); in test [4] (Table 3b (additional results)), 0.25 to 1 µg/mL (≈ 0.407 to 1.63 µM). The IC50 in test [3] (Table 2a) was in the range of 1 to 5 nM; in test [3] (Table 2b, additional results), 1 to 5 nM; in test [5] (Table 2a), 1 to 5 nM; in test [5] (Table 2b, additional results), 1 to 5 nM.
In the case of `COc1ccc(F)cc1[C@H](Cn1c(=O)n(C(C)(C)C(=O)NC2CCC2)c(=O)c2c(C)c(-n3nccn3)sc21)OCCC(C)=O` [Compound I-105], the MIC in test [1] (Table 3a) is 0.25 to 1 µg/mL (≈ 0.399 to 1.6 µM); in test [1] (Table 3b (additional results)) it was 1.01 to 2 µg/mL (≈ 1.61 to 3.19 µM); in test [2] (Table 3a) it was 0.25 to 1 µg/mL (≈ 0.399 to 1.6 µM); in test [2] (Table 3b (additional results)), 0.25 to 1 µg/mL (≈ 0.399 to 1.6 µM); in test [4] (Table 3a) it was 0.06 to 0.24 µg/mL (≈ 0.0957 to 0.383 µM); in test [4] (Table 3b (additional results)), 0.25 to 1 µg/mL (≈ 0.399 to 1.6 µM). Besides, the IC50 is 1 to 5 nM in test [3] (Table 2a); 1 to 5 nM in test [3] (Table 2b, additional results); 0.4 to 1 nM in test [5] (Table 2a); 0.3 to 1 nM in test [5] (Table 2b, additional results).
